Patent US9815796B2 (Merck Sharp & Dohme Corp., priority 2013, dated 2017)
Read-outs that look alike come from different tables or passages of the source.

Columns and labels:
Rhesus PDE2A3 = Rhesus PDE2A3 (Macaca mulatta, UniProt B3VTJ2); test: PDE2 fluorescence polarization (IMAP FP) inhibition assay, rhesus enzyme; type: biochemical, rhesus macaque
Summary of the method: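 IMAP FP (mP from parallel and perpendicular fluorescence against substrate-only control) was read ≥1 h after adding binding reagent. The preceding 60 min room-temperature reaction contained FAM-cAMP (50 nM) and cGMP (1 uM) in pH 7.2 Tris buffer with MgCl2 and DTT. Enzyme was supernatant of sonicated AD293 cells expressing rhesus PDE2A3; compounds were 3-fold titrated, DMSO 1% final.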

human PDE2A1 = human PDE2A1 (Homo sapiens (Human), UniProt O00408); test: IMAP FP PDE selectivity panel, human PDE2A1; type: biochemical
Sequence of human PDE2A1 (O00408 other isoform, or with tags, fused parts or gaps): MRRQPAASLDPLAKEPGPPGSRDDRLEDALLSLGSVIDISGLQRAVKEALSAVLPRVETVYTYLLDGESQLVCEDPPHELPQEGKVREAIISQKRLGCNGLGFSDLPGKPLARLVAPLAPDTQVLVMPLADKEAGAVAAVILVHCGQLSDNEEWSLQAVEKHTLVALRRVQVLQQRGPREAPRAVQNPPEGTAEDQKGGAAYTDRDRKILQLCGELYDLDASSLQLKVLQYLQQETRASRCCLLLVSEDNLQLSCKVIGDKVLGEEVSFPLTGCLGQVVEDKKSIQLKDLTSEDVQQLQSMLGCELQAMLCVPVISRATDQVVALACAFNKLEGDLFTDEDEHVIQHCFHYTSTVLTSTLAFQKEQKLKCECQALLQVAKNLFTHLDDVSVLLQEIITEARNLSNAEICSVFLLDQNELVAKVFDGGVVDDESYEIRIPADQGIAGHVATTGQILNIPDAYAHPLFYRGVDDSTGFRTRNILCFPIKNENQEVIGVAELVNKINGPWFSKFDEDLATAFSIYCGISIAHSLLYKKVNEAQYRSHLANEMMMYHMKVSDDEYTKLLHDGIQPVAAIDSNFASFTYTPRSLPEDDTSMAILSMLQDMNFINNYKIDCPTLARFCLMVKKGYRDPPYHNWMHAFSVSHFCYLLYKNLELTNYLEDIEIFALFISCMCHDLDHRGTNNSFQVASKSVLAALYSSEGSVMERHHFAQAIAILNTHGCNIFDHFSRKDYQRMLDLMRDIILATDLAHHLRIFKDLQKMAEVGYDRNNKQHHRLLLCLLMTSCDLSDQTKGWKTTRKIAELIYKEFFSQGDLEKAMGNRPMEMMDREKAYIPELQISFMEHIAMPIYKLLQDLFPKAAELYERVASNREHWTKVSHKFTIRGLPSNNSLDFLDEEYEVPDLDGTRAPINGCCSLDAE
Summary of the method: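 IMAP FP format: substrate 50 nM FAM-cAMP plus 1000 nM cGMP, enzyme (insect-cell GST-tagged human PDE2A1) at ~20% conversion, 60 min reaction at room temperature. Apparent inhibition constants calculated from parallel/perpendicular fluorescence with KM 10,000 nM.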

[1] = Rhesus PDE2, Lab A, read-out: Rhesus PDE2 Ki (nM) - Lab A
[2] = Rhesus PDE2, Lab B, read-out: Rhesus PDE2 Ki (nM) - Lab B
[3] = Human PDE2, Lab A, read-out: Human PDE2 Ki (nM) - Lab A
[4] = Human PDE2, Lab B, read-out: Human PDE2 Ki (nM) - Lab B

Sequence of Rhesus PDE2A3 (B3VTJ2 1-941): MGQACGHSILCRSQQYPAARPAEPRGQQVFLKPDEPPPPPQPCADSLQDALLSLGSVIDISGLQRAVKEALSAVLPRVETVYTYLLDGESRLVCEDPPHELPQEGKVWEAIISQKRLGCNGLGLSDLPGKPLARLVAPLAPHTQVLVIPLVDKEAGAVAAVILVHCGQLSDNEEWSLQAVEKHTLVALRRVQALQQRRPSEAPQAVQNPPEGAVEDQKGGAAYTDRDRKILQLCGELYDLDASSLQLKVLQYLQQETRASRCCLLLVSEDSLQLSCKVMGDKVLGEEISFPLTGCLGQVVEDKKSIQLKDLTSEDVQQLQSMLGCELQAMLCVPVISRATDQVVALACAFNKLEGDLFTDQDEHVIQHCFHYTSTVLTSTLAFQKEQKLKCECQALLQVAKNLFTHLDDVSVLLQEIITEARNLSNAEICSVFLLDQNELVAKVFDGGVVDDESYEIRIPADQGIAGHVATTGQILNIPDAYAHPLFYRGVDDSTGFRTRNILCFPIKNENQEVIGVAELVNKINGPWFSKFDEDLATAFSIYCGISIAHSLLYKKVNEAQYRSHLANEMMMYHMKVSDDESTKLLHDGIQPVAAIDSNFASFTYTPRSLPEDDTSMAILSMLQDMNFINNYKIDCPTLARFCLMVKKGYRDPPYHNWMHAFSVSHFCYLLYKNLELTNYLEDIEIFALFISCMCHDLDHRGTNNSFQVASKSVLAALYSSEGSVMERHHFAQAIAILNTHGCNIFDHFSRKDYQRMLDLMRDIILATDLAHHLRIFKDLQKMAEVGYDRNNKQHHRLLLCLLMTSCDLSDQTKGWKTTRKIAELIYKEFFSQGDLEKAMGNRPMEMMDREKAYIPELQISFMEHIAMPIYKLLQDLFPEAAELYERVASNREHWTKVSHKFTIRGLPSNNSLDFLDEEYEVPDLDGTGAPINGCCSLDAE

| Ki (Rhesus PDE2A3; [1]) [nM] | Ki (Rhesus PDE2A3; [2]) [nM] | Ki (human PDE2A1; [3]) [nM] | Ki (human PDE2A1; [4]) [nM] | Structure (SMILES) |
| --- | --- | --- | --- | --- |
| 17 | 23 | ~13 | 22 | CC[C@@H](NC(=O)c1cc(=O)[nH]c(C2CC2)n1)c1ccc(C(F)(F)F)c(F)c1 [Example 254, 2-cyclopropyl-N-{(1R)-1-[3-fluoro-4-(trifluoromethyl)phenyl]propyl}-6-oxo-1,6-dihydropyrimidine-4-carboxamide] |
| 3.7 | 4.7 |  | 4.9 | CC(C)(C)[C@@H](NC(=O)c1cc(=O)[nH]c(-c2ncccn2)n1)c1ccc(C(F)(F)F)cc1 [Example 255, N-{(1R)-2,2-dimethyl-1-[4-(trifluoromethyl)phenyl]propyl}-6-oxo-1,6-dihydro-2,2′-bipyrimidine-4-carboxamide] |
| 13 | 21 | ~12 | 20 | C[C@@H](NC(=O)c1cc(=O)[nH]c(C2CC2)n1)c1ccc(C2CC2)cc1 [Example 256, 2-cyclopropyl-N-[(1R)-1-(4-cyclopropylphenyl)ethyl]-6-oxo-1,6-dihydropyrimidine-4-carboxamide] |
| 2.6 | 4 |  | 3.8 | CC[C@@H](NC(=O)c1cc(=O)[nH]c(-c2ncccn2)n1)c1ccc(S(F)(F)(F)(F)F)cc1 [Example 257, 6-oxo-N-{(1R)-1-[4-(pentafluoro-λ^6-sulfanyl)phenyl]propyl}-1,6-dihydro-2,2′-bipyrimidine-4-carboxamide] |
| 19 | 41 |  | 39 | Cc1nc(C(=O)N[C@H](C)c2ccc(C3CC3)cc2)cc(=O)[nH]1 [Example 258, N-[(1R)-1-(4-cyclopropylphenyl)ethyl]-2-methyl-6-oxo-1,6-dihydropyrimidine-4-carboxamide] |
| 124 | 209 |  | 179 | Cc1nc(C(=O)NC(C)(C)c2ccc(SC(F)(F)F)c(F)c2)cc(=O)[nH]1 [Example 259, N-(1-{3-fluoro-4-[(trifluoromethyl)sulfanyl]phenyl}-1-methylethyl)-2-methyl-6-oxo-1,6-dihydropyrimidine-4-carboxamide] |
| 1 | 1.8 |  | 1.8 | C[C@@H](NC(=O)c1cc(=O)[nH]c(-c2ncccn2)n1)c1ccc(SC(F)(F)F)c(F)c1 [Example 260, N-[(1R)-1-{3-fluoro-4-[(trifluoromethyl)sulfanyl]phenyl}ethyl]-6-oxo-1,6-dihydro-2,2′-bipyrimidine-4-carboxamide] |
| 18 | 37 |  | 33 | Cc1nc(C(=O)NC2(c3ccc(SC(F)(F)F)c(F)c3)CC2)cc(=O)[nH]1 [Example 261, N-(1-{3-fluoro-4-[(trifluoromethyl)sulfanyl]phenyl}cyclopropyl)-2-methyl-6-oxo-1,6-dihydropyrimidine-4-carboxamide] |
| 0.65 | 0.85 |  | 0.79 | CC(C)(C)[C@@H](NC(=O)c1cc(=O)[nH]c(C2CC2)n1)c1ccc(C(F)(F)F)cc1 [Example 262, 2-cyclopropyl-N-{(1R)-2,2-dimethyl-1-[4-(trifluoromethyl)phenyl]propyl}-6-oxo-1,6-dihydropyrimidine-4-carboxamide] |
| 1.5 | 1.9 |  | 2.1 | CC[C@@H](NC(=O)c1cc(=O)[nH]c(-c2ncccn2)n1)c1ccc(SC(F)(F)F)c(F)c1 [Example 263, N-[(1R)-1-{3-fluoro-4-[(trifluoromethyl)sulfanyl]phenyl}propyl]-6-oxo-1,6-dihydro-2,2′-bipyrimidine-4-carboxamide] |
| 4.6 | 7.9 |  | 7.7 | CC[C@@H](NC(=O)c1cc(=O)[nH]c(-c2ncccn2)n1)c1ccc(C(F)(F)F)c(F)c1 [Example 264, N-{(1R)-1-[3-fluoro-4-(trifluoromethyl)phenyl]propyl}-6-oxo-1,6-dihydro-2,2′-bipyrimidine-4-carboxamide] |
| 1.2 | 1.6 |  | 1.5 | CC(C)[C@@H](NC(=O)c1cc(=O)[nH]c(-c2ncccn2)n1)c1ccc(S(F)(F)(F)(F)F)cc1 [Example 265, N-{(1R)-2-methyl-1-[4-(pentafluoro-λ^6-sulfanyl)phenyl]propyl}-6-oxo-1,6-dihydro-2,2′-bipyrimidine-4-carboxamide] |
| 86 |  | 65 |  | CC(C)(NC(=O)c1cc(=O)[nH]c(C2CC2)n1)c1ccc(SC(F)(F)F)c(F)c1 [Example 266, 2-cyclopropyl-N-(1-{3-fluoro-4-[(trifluoromethyl)sulfanyl]phenyl}-1-methylethyl)-6-oxo-1,6-dihydropyrimidine-4-carboxamide] |
| 146 |  | 83 |  | CCc1ccc(C(C)NC(=O)c2cc(=O)[nH]c(C)n2)cc1 (stereo not shown) [Example 268, N-[1-(4-ethylphenyl)ethyl]-2-methyl-6-oxo-1,6-dihydropyrimidine-4-carboxamide] |
| 158 |  | 118 | 96 | Cc1nc(C(=O)NC2(c3ccc(OC(F)(F)F)cc3)CCC2)cc(=O)[nH]1 [Example 269] |
| 225 |  | 113 |  | Cc1nc(C(=O)NC2(c3ccc(C(F)(F)F)cc3)CCCC2)cc(=O)[nH]1 [Example 270, 2-methyl-6-oxo-N-{1-[4-(trifluoromethyl)phenyl]cyclopentyl}-1,6-dihydropyrimidine-4-carboxamide] |
| 42 |  | 40 | 71 | Cc1nc(C(=O)NC(C)(C)c2ccc(C(F)(F)F)cc2)cc(=O)[nH]1 [Example 272, 2-methyl-N-{1-methyl-1-[4-(trifluoromethyl)phenyl]ethyl}-6-oxo-1,6-dihydropyrimidine-4-carboxamide] |
| 304 |  | 278 |  | Cc1nc(C(=O)NC(C)(C)c2ccc(OC(F)(F)F)cc2)cc(=O)[nH]1 [Example 273, 2-methyl-N-{1-methyl-1-[4-(trifluoromethoxy)phenyl]ethyl}-1,6-oxo-1,6-dihydropyrimidine-4-carboxamide] |
| 6.7 |  | 6.7 |  | C[C@@H](NC(=O)c1cc(=O)[nH]c(-c2ccccc2)n1)c1ccc(C(F)(F)F)cc1 [Example 274, 6-oxo-2-phenyl-N-{(1R)-1-[4-(trifluoromethyl)phenyl]ethyl}-1,6-dihydropyrimidine-4-carboxamide] |
| 4.5 |  | 3 |  | C[C@@H](NC(=O)c1cc(=O)[nH]c(-c2ccccc2)n1)c1ccc(OC(F)(F)F)cc1 [Example 275, 6-oxo-2-phenyl-N-{(1R)-1-[4-(trifluoromethoxy)phenyl]ethyl}-1,6-dihydropyrimidine-4-carboxamide] |
| 4.2 |  | 3.8 |  | O=C(NC1(c2ccc(C(F)(F)F)cc2)CC1)c1cc(=O)[nH]c(-c2ccccc2)n1 [Example 276, 6-oxo-2-phenyl-N-{1-[4-(trifluoromethyl)phenyl]cyclopropyl}-1,6-dihydropyrimidine-4-carboxamide] |
| 6.6 |  | 5.6 |  | O=C(NC1(c2ccc(OC(F)(F)F)cc2)CC1)c1cc(=O)[nH]c(-c2ccccc2)n1 [Example 277, 6-oxo-2-phenyl-N-{1-[4-(trifluoromethoxy)phenyl]cyclopropyl}-1,6-dihydropyrimidine-4-carboxamide] |
| 18 |  | 12 |  | O=C(NC1(c2ccc(C(F)(F)F)cc2)CCC1)c1cc(=O)[nH]c(-c2ccccc2)n1 [Example 278, 6-oxo-2-phenyl-N-{1-[4-(trifluoromethyl)phenyl]cyclobutyl}-1,6-dihydropyrimidine-4-carboxamide] |
| 24 |  | 16 |  | C[C@@H](NC(=O)c1cc(=O)[nH]c(-c2ccccc2)n1)c1ccc(-c2ccccc2)cc1 [Example 279, N-[(1R)-1-biphenyl-4-ylethyl]-6-oxo-2-phenyl-1,6-dihydropyrimidine-4-carboxamide] |
| 19 |  | 16 |  | CC(C)(NC(=O)c1cc(=O)[nH]c(-c2ccccc2)n1)c1ccc(C(F)(F)F)cc1 [Example 280, N-{1-methyl-1-[4-(trifluoromethyl)phenyl]ethyl}-6-oxo-2-phenyl-1,6-dihydropyrimidine-4-carboxamide] |
| 133 |  | 82 |  | CC(C)(NC(=O)c1cc(=O)[nH]c(-c2ccccc2)n1)c1ccc(OC(F)(F)F)cc1 [Example 281, N-{1-methyl-1-[4-(trifluoromethoxy)phenyl]ethyl}-6-oxo-2-phenyl-1,6-dihydropyrimidine-4-carboxamide] |
| 124 |  | 61 |  | O=C(NC1(c2ccc(OC(F)(F)F)cc2)CCC1)c1cc(=O)[nH]c(-c2ccccc2)n1 [Example 282] |
| 8.7 |  | 6 |  | C[C@@H](NC(=O)c1cc(=O)[nH]c(-c2ncccn2)n1)c1ccc(OC(F)(F)F)cc1 [Example 283, 6-oxo-N-{(1R)-1-[4-(trifluoromethoxy)phenyl]ethyl}-1,6-dihydro-2,2′-bipyrimidine-4-carboxamide] |
| 43 |  | 36 |  | O=C(NC1(c2ccc(C(F)(F)F)cc2)CC1)c1cc(=O)[nH]c(-c2ncccn2)n1 [Example 284, 6-oxo-N-{1-[4-(trifluoromethyl)phenyl]cyclopropyl}-1,6-dihydro-2,2′-bipyrimidine-4-carboxamide] |
| 46 |  | 46 |  | O=C(NC1(c2ccc(OC(F)(F)F)cc2)CC1)c1cc(=O)[nH]c(-c2ncccn2)n1 [Example 285, 6-oxo-N-{1-[4-(trifluoromethoxy)phenyl]cyclopropyl}-1,6-dihydro-2,2′-bipyrimidine-4-carboxamide] |
